From US20250171457A1, “NITROGEN-CONTAINING HETEROCYCLIC COMPOUND HAVING NRF2 ACTIVATION EFFECT” (CHUGAI SEIYAKU KABUSHIKI KAISHA, priority 2022, published 2025)

These compounds were tested on Nrf2 transcriptional activity (pARE-Luc reporter) in HepG2 cells (assay: In vitro Nrf2 transcriptional activity measurement by ARE-dependent reporter assay in HepG2 cell). Conditions: Homo sapiens; HepG2 cells transfected with pARE-Luc, 4 hours at 37° C.; luciferase activity of Example 1-54 or Example 17-23 at 3.75 μM defined as 100%.
Type: cell-based, human
Summary of the method: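 HepG2 cells transfected with pGL4.37 (pARE-Luc), replated onto compound and incubated 4 h at 37° C; luciferase read by Bright-Glo luminescence. Response normalized to 100% set by a reference compound at 3.75 μM; EC50 from dose-response curve.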
For `O=C(O)c1cc(F)c(-c2cccc3c2OCN(C(=O)c2c(Cl)cc(N4CCN(CC5CCCO5)CC4)cc2Cl)C3)cc1N1C2CCC1COC2` (stereo not shown) [Compound 4-16, 4-[3-[2,6-Dichloro-4-[4-(oxolan-2-ylmethyl)piperazin-1-yl]benzoyl]-2,4-dihydro-1,3-benzoxazin-8-yl]-5-fluoro-2-(3-oxa-8-azabicyclo[3.2.1]octan-8-yl)benzoic acid], the EC50 was 2.9 nM.
Work on `O=C(O)c1cc(F)c(-c2cccc3c2OCN(C(=O)c2c(Cl)cc(N4C[C@@H]5C[C@H]4CO5)cc2Cl)C3)cc1N1C2CCC1COC2` [Compound 4-17, 4-[3-[2,6-Dichloro-4-[(1S,4S)-2-oxa-5-azabicyclo[2.2.1]heptan-5-yl]benzoyl]-2,4-dihydro-1,3-benzoxazin-8-yl]-5-fluoro-2-(3-oxa-8-azabicyclo[3.2.1]octan-8-yl)benzoic acid] yielded an EC50 of 4 nM.
`C[C@@H]1CN(c2cc(Cl)c(C(=O)N3COc4c(cccc4-c4cc(N5C6CCC5COC6)c(C(=O)O)cc4F)C3)c(Cl)c2)CCO1` [Compound 4-18, 4-[3-[2,6-Dichloro-4-[(2R)-2-methylmorpholin-4-yl]benzoyl]-2,4-dihydro-1,3-benzoxazin-8-yl]-5-fluoro-2-(3-oxa-8-azabicyclo[3.2.1]octan-8-yl)benzoic acid] gave an EC50 of 3.6 nM.
In the case of `O=C(O)c1cc(F)c(-c2cccc3c2OCN(C(=O)c2c(Cl)cc(N4CCOCC4)cc2Cl)C3)cc1N1C2CCC1COC2` [Compound 4-19, 4-[3-(2,6-Dichloro-4-morpholin-4-ylbenzoyl)-2,4-dihydro-1,3-benzoxazin-8-yl]-5-fluoro-2-(3-oxa-8-azabicyclo[3.2.1]octan-8-yl)benzoic acid], the EC50 is reported as 2.9 nM.
`O=C(O)c1ccc(-c2cccc3c2OCN(C(=O)c2c(Cl)cc(N4CC[C@@H](O)C4)cc2Cl)C3)cc1N1CCOCC1` [Compound 4-20, 4-[3-[2,6-Dichloro-4-[(3R)-3-hydroxypyrrolidin-1-yl]benzoyl]-2,4-dihydro-1,3-benzoxazin-8-yl]-2-morpholin-4-ylbenzoic acid] showed an EC50 of 3 nM.
With `O=C(O)c1ccc(-c2cccc3c2OCN(C(=O)c2c(Cl)cc(N4CC5(COC5)C4)cc2Cl)C3)cc1N1CCOCC1` [Compound 4-21, 4-[3-[2,6-Dichloro-4-(2-oxa-6-azaspiro[3.3]heptan-6-yl)benzoyl]-2,4-dihydro-1,3-benzoxazin-8-yl]-2-morpholin-4-ylbenzoic acid] the EC50 was 7.4 nM.
In the case of `CN1CCCN(c2cc(Cl)c(C(=O)N3COc4c(cccc4-c4cc(N5CCOCC5)c(C(=O)O)cc4F)C3)c(Cl)c2)CC1` [Compound 4-22, 4-[3-[2,6-Dichloro-4-(4-methyl-1,4-diazepan-1-yl)benzoyl]-2,4-dihydro-1,3-benzoxazin-8-yl]-5-fluoro-2-morpholin-4-ylbenzoic acid], the EC50 is reported as 1.8 nM.
`COCCN(C)c1cc(Cl)c(C(=O)N2COc3c(cccc3-c3cc(N4CCOCC4)c(C(=O)O)cc3F)C2)c(Cl)c1` [Compound 4-23, 4-[3-[2,6-Dichloro-4-[2-methoxyethyl(methyl)amino]benzoyl]-2,4-dihydro-1,3-benzoxazin-8-yl]-5-fluoro-2-morpholin-4-ylbenzoic acid] gave an EC50 of 1.5 nM.
Compound `O=C(O)c1cc(F)c(-c2cccc3c2OCN(C(=O)c2c(Cl)cc(N4CC5COCC5C4)cc2Cl)C3)cc1N1CCOCC1` (stereo not shown) [Compound 4-24, 4-[3-[4-(1,3,3a,4,6,6a-Hexahydrofuro[3,4-c]pyrrol-5-yl)-2,6-dichlorobenzoyl]-2,4-dihydro-1,3-benzoxazin-8-yl]-5-fluoro-2-morpholin-4-ylbenzoic acid] has an EC50 of 2.7 nM.
With `COCCN1CCCN(c2cc(Cl)c(C(=O)N3COc4c(cccc4-c4cc(N5CCOCC5)c(C(=O)O)cc4F)C3)c(Cl)c2)CC1` [Compound 4-25, 4-[3-[2,6-Dichloro-4-[4-(2-methoxyethyl)-1,4-diazepan-1-yl]benzoyl]-2,4-dihydro-1,3-benzoxazin-8-yl]-5-fluoro-2-morpholin-4-ylbenzoic acid] the EC50 was 1.9 nM.
